# In paper PMC5537602, “TRPA1 channel mediates organophosphate-induced delayed neuropathy” (Cell Discovery, 2017):
# Tests used:
# Format in all cases: cell-based
# [1] = molecular target: T1, TRPV4 (Homo sapiens, UniProt Q9HBA0); assay: Calcium fluorescence signal, HEK293 cells overexpressing TRPV4; conditions: 10 μM
# T1 construct: expressed in transfected cells; host or cells: HEK293
# Method: (§1) Figure S3. Specificity of malathion for TRPA1 channels. (A-F) Time course of the fluorescence signal induced by malathion (Mala, 10 μM) and the indicated positive agonists (10 μM) in HEK293 cells overexpressing TRPV1 (A), TRPV3 (B), TRPV4 (C), TRPM8 (D), TRPC4 (E) and TRPC5 (F) channels. The fluorescence signals are scaled as F/F0. EC indicates external solution. […]
# (§2) cells for each tested TRP channel. All bars are presented as the mean ± SEM. […]
# [2] = molecular target: T2, TRPC4 (Homo sapiens, UniProt Q9UBN4); assay: Calcium fluorescence signal, HEK293 cells overexpressing TRPC4; conditions: 10 μM
# T2 construct: expressed in transfected cells; host or cells: HEK293
# T2 sequence (Q9UBN4 1-977): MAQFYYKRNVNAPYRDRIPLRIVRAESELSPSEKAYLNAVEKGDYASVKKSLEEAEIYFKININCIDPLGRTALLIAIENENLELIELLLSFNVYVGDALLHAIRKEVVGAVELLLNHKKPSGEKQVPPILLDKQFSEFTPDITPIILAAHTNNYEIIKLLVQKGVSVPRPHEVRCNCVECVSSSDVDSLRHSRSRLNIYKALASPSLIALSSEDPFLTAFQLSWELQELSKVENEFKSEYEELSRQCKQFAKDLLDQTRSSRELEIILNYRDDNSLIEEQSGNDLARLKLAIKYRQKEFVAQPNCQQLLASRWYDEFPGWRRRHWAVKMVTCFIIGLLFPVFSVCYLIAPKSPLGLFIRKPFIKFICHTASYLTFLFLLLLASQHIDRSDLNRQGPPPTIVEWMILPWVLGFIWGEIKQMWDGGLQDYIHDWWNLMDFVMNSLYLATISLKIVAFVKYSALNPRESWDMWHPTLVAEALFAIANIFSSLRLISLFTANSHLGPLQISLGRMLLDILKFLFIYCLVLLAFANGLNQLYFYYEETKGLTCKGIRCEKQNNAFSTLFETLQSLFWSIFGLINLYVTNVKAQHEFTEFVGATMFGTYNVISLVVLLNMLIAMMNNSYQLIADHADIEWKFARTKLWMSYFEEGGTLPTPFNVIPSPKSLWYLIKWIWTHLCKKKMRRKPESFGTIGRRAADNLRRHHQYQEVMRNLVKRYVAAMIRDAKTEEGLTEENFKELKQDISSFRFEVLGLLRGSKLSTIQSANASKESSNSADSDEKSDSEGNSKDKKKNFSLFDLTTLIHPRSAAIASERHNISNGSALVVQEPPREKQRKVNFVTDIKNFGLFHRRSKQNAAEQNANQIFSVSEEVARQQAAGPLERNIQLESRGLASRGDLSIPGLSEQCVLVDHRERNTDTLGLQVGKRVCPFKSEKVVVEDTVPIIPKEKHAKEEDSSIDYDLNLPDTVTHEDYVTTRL
# Method: as §1, §2
# [3] = molecular target: T3, TRPC5 (Homo sapiens, UniProt Q9UL62); assay: Calcium fluorescence signal, HEK293 cells overexpressing TRPC5; conditions: 10 μM
# T3 construct: expressed in transfected cells; host or cells: HEK293
# T3 sequence (Q9UL62 1-973): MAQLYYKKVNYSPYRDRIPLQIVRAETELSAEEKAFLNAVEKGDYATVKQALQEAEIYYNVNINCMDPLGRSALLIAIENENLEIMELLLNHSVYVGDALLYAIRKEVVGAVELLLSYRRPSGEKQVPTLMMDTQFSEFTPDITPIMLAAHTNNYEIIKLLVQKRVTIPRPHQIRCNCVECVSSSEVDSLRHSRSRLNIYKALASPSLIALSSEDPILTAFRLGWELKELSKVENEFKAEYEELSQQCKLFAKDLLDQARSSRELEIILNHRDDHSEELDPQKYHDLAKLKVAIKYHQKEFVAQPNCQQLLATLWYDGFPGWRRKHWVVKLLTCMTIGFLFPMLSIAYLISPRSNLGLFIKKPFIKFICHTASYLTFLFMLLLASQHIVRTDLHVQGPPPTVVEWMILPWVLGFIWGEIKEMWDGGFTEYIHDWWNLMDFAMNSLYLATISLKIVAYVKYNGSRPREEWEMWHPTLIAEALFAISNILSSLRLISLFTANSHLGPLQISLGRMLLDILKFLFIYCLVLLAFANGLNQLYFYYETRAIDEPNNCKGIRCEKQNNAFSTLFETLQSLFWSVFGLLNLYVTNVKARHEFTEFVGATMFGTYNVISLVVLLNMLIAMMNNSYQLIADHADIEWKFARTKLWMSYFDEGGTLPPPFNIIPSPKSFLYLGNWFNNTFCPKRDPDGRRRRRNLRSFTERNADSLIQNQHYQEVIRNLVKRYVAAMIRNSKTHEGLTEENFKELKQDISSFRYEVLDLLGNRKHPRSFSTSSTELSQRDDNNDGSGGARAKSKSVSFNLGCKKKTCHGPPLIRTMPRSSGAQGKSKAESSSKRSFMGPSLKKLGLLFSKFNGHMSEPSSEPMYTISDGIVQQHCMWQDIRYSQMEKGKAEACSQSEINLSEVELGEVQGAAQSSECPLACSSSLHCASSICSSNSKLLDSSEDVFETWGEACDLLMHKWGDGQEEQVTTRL
# Method: as §1, §2
# [4] = molecular target: mTRPA1 (Mus musculus, UniProt Q8BLA8); assay: FDSS Ca2+-influx assay, HEK293 cells stably expressing mTRPA1; set-up: expressed in transfected cells; conditions: HEK293 cells, change in [Ca2+]i; read-out: EC50, activation of mTRPA1
# mTRPA1, sequence (Q8BLA8 whole entry): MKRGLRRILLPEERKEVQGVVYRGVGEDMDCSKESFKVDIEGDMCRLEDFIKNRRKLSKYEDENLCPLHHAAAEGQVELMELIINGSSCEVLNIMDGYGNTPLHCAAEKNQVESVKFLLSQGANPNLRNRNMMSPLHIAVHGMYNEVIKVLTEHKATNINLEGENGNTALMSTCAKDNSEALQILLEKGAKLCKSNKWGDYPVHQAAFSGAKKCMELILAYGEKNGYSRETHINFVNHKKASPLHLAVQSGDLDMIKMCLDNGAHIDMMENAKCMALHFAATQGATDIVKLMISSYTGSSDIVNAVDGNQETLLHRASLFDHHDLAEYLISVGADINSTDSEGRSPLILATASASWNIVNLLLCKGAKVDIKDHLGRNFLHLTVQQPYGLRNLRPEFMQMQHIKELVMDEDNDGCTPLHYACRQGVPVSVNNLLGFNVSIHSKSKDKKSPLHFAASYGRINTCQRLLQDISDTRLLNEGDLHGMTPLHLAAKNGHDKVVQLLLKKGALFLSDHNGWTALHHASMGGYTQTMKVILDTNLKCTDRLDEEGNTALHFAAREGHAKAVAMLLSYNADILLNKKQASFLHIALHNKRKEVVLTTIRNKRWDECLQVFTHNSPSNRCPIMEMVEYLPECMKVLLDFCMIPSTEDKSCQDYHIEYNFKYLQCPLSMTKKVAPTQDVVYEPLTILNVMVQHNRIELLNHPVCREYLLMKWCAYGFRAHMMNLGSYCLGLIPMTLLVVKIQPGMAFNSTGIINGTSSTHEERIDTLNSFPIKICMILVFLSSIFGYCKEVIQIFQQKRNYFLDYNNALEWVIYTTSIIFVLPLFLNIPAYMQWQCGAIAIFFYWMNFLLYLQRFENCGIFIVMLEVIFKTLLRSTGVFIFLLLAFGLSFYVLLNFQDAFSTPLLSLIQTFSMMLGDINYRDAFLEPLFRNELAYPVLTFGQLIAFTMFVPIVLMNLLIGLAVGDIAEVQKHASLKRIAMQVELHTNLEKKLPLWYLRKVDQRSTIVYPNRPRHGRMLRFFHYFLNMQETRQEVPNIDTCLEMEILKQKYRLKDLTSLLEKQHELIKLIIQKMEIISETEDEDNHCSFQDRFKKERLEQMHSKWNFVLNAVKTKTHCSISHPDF
# Method: Ca^2+-influx assays were carried out using HEK293 cells stably expressing mTRPA1 channels with an FDSS screening system (Hamamatsu, Japan). Before the start of the assay, HEK293-mTRPA1 cells were plated onto poly-D-Lysine (40 μg ml^−1) coated 96-well black clear bottom plate with the cell density of 300 000 cells per milliliter in DMEM supplemented with 10% (vol/vol) fetal bovine serum, 200 μg ml^−1 Hygromycin B, 15 μg ml^−1 Blasticidin S HCL and 0.3 μg ml^−1 doxycycline, which could induce the expression of mTRPA1. The 96-well plate was then put in sterile incubator overnight. The following day, Ca^2+ influx dye Fluo-4/AM stock was diluted to 2 μM with bath solution, and added (50 μl per well) in place of the culture medium. The plate was then incubated to load the Fluo-4/AM into cells for 60 min at 37 °C in dark environment. During the incubation, we prepared the compound plate (96-well) and the margin of plate was set as blank control due to the fringing effect. At the end of dye loading period, the remnant dye was removed using bath solution to wash the 96-well cell plate twice and then add 80 μl bath solution per well.
# T1 sequence (Q9HBA0 whole entry, species assumed): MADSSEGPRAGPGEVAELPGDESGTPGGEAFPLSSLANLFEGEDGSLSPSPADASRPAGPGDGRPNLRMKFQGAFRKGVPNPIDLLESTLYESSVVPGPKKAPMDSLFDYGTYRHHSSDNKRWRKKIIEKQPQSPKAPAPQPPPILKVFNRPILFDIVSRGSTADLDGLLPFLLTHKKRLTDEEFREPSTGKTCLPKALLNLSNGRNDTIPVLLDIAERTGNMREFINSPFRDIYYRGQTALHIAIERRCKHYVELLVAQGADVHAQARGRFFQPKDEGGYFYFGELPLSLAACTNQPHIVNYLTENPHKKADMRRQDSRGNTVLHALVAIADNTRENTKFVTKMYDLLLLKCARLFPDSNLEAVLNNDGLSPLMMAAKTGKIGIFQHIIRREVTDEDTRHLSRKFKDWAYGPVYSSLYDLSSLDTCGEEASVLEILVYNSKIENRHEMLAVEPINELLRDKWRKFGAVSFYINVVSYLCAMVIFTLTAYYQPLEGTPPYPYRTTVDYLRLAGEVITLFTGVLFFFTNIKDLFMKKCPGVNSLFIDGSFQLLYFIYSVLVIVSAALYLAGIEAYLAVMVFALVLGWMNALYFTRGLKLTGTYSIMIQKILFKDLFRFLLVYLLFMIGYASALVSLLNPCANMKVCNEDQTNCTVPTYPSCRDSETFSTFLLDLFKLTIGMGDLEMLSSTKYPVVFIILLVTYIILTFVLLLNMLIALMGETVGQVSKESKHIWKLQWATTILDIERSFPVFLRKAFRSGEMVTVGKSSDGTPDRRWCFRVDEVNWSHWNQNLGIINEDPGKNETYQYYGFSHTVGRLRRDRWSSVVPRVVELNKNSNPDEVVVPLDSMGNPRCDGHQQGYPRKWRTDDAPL
smiles,measurement,setting,value
"CCOC(=O)CC(SP(=S)(OC)OC)C(=O)OCC (stereo not drawn) [malathion, S-[1,2-bis (ethoxycarbonyl)ethyl] O, O-dimethyl phosphorodithioate]",activation of TRPV4,[1],could not activate
same,activation of TRPC4,[2],could not activate
same,activation of TRPC5,[3],could not activate
same,EC50,[4],14.2 ± 1.02 µM
